The assay deals with T1, endogenous TRIM24 in OV90 cells (Homo sapiens, UniProt O15164).
T1 construct: non-transfected OV90 cells looking at endogenous TRIM24; endogenous in cells; host or cells: OV90
T1 sequence (O15164 1-1050): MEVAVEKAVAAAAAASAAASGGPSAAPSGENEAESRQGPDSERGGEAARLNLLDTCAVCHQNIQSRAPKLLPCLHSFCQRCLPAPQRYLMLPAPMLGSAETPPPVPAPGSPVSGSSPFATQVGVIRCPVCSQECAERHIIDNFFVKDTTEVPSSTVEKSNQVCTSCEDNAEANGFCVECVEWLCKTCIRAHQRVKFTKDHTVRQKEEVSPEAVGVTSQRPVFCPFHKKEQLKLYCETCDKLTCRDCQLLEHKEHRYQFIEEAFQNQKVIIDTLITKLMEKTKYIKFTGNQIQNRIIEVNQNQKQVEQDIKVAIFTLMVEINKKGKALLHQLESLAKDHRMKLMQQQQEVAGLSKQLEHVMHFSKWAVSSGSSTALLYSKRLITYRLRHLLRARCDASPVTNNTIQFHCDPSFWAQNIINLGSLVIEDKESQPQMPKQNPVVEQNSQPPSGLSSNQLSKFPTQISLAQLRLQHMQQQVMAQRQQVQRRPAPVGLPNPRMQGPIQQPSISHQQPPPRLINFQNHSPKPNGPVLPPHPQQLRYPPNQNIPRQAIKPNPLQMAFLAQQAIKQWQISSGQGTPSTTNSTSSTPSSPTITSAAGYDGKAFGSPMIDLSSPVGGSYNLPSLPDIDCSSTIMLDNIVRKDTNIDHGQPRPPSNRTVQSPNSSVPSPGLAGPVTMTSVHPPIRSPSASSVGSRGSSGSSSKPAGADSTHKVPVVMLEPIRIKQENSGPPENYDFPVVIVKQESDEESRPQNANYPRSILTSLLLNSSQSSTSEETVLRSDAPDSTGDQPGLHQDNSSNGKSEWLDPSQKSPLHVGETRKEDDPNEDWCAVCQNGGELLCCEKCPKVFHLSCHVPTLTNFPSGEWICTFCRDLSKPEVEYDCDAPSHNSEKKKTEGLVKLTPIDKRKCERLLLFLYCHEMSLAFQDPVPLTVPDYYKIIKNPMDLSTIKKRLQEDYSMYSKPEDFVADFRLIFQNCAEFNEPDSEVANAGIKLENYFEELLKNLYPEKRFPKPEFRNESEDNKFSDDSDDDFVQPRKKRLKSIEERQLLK
Description: In situ cell extraction with IF in OV90 cells. Format: cell-based. As to the method: OV90 or HeLa cells (20,000 cells/100 µL) were seeded into 96-well plates (Corning Costar #3603) using RPMI or DMEM medium, respectively, supplemented with 10 % FBS and grown overnight. Test agents were serially diluted in DMSO (with or without SAHA) to generate 10X master compound plates. From here, 11 µL was transferred into each well containing 100 µL of growth media followed by shaking on a rotation table (15 min, 300 rpm at RT) and incubation at 37 °C for 2 h. Plates were washed once with PBS (150 µL/well) and then with cold, freshly prepared Cytoskeleton (CSK) Buffer (10 mM PIPES, 300 mM Sucrose, 100 mM NaCl, 3 mM MgCl2; pH = 6.8). Immediately thereafter, soluble, non-chromatin-bound proteins were extracted by addition of cold CSK Buffer supplemented with 0.5 % Triton X-100 (150 µL per well) for 10 min at 4 °C followed by 4 % paraformaldehyde fixation (10 min at RT) (Additional file 1: Table S3).
Standard IF procedures were used. Briefly, cells were permeabilized (0.5 % Triton X-100 in PBS) for 15 min and incubated with blocking solution (DAKO #X0909) for 30 min. The following primary antibodies were used: goat anti-V5 (Bethyl #A190-119A) 1:200; mouse anti-FLAG (Sigma #F1804) 1:200; rabbit anti-BRD4 (Abcam #ab128874) 1:200; rabbit anti-TRIM24 (Proteintech #14208-1-AP) 1:400; rabbit anti-K3K23Ac (Cell Signaling #8848) 1:200, and mouse anti-histone H3 (Active Motif #39763) 1:4000. Alexa Fluor-conjugated secondary antibodies were from Invitrogen and Hoechst 33342 (Invitrogen, #H3570) was used for nuclei counterstaining (10 µg/ml). For each Alexa fluorochrome, images (4–10 fields per well; 20X magnifications) were acquired using the Operetta High-Content Screening System (PerkinElmer). Image analysis was performed in Harmony software (PerkinElmer) by selecting nuclei and cytoplasm in Hoechst channel. Gating for single cells of flat morphology was done based on nuclei area, roundness and intensity of Hoechst in the nucleus and in the cytoplasm. In every gated cell, the mean signal intensity value for each fluorochrome was calculated separately in nucleus and cytoplasm. The specific nuclear signal was estimated subtracting mean cytoplasmic value from nuclear; and average value was calculated using at least 1000 cells in each well.
Supplemental Table S3 (Zhan et al.)
Table S3. In Situ Cell Extraction Procedure (IF)
Step Parameter Solution Volume Time Temp (°C)
Seed cells DMEM supplemented with 10 % FBS 37°C,
2 SAHA treatment SAHA (50 µM) in DMEM with 10% FBS 12 µL 2h 37°C,
3 Prepare Master 100X final concentration in assay 30 µL […]
Image analysis: The analysis was performed in Harmony (PerkinElmer) software by selecting nuclei and cytoplasm in Hoechst 33342 channel . […] For each channel “mean nuclear signal“ was calculated as “mean […]

Molecules are shown by their SMILES. Some results are limits rather than exact numbers.

Regarding `O=C(CCCCCCC(=O)Nc1ccccc1)NO` [SAHA, Suberoylanilide Hydroxamic Acid], the “Mean IF nuclei intensity of endogenous TRIM24” value (OV90, SAHA treatment) is recorded as “did not change”.

On to `Cc1nc(S(=O)(=O)Nc2cc3c(cc2Oc2cccc(OCC(C)C)c2)n(C)c(=O)n3C)cn1C` [IACS-6558, N-{1,3-dimethyl-6-[3-(2-methylpropoxy)phenoxy]-2-oxo-2,3-dihydro-1H-1,3-benzodiazol-5-yl}-1,2-dimethyl-1H-imidazole-4-sulfonamide], for which the “Histone H3 protein levels” value (OV90, 10 µM, 2 h) is given as “unchanged”. Besides, the “Chromatin binding of endogenous TRIM24” value (OV90 cells) is reported as “readily reduced”. For the same molecule, the “Time to displacement of endogenous TRIM24 from chromatin” value (non-transfected OV90 cells) is listed as at most 5 min.

Source of the values: PMC4578755, “Development of novel cellular histone-binding and chromatin-displacement assays for bromodomain drug discovery” (Epigenetics & Chromatin, 2015).
